Like-named read-outs stand apart in the source and are kept apart here.
Legend:
Ba/F3 LMNA-NTRK3-G623R = assay: Cell proliferation inhibition (CellTiter-Glo), Ba/F3 LMNA-NTRK3-G623R; format: cell-based; details: Mus musculus, BaF3, 72 h, 72 hrs, read-out: IC50 proliferation Ba/F3 LMNA-NTRK3-G623R
Ba/F3 ETV6-NTRK3-WT = assay: Cell proliferation inhibition (CellTiter-Glo), Ba/F3 ETV6-NTRK3-WT; format: cell-based; details: Mus musculus, BaF3, 72 h, 72 hrs, read-out: IC50 proliferation Ba/F3 ETV6-NTRK3-WT
[1] = Pharmacokinetic analysis in rats; format: in vivo, Male SD rats; details: rat
Description: 6. Pharmacokinetic Analysis
Male SD rats were grouped, each group having 3 rats. […] Animals were fasted overnight from 10 hours before administration to 4 hours after administration. Blood samples were collected at 0.25, 0.5, 1, 2, 4, 8 and 24 hours after administration in the oral group and at 0.083, 0.25, 0.5, 1, 2, 4, 8 and 24 hours after injection in the intravenous group. After isoflurane anesthesia, 0.3 ml whole blood collected through the fundus vein plexus was put into the heparin anticoagulant tube. The sample was centrifuged at 4° C. at 4000 rpm for 5 min. The plasma was transferred into the centrifuge tube and stored at −80° C. until analysis. The extract from the plasma extracted by protein precipitation was analyzed by LC/MS/MS.

[2] = Blood-to-brain distribution in rats; format: in vivo; details: male, SD, rat, 10 mg/kg single oral gavage
Description: 7. Blood-to-Brain Distribution
Male SD rats were grouped, each group having 12 rats. Each group was given the compound of Examples (10 mg/kg) by single oral gavage. The animals were fasted overnight from 10 hours before administration to 4 hours after administration. The rats were killed at 0.5, 1, 4 and 12 hours after administration, and blood and brain tissues were collected. The samples were centrifuged at 4000 rpm at 4° C. for 5 min and plasma was transferred into the centrifuge tube and stored at −80° C. until analysis. The extract from the plasma extracted by protein precipitation was analyzed by LC/MS/MS.

ALK-L1196M = ALK-L1196M (Homo sapiens (Human), UniProt Q9UM73, L1196M); assay: HTRF kinase activity assay, ALK-L1196M; format: biochemical; details: 30 μM ATP
Chain of ALK-L1196M (Q9UM73 19-1620 L1196M): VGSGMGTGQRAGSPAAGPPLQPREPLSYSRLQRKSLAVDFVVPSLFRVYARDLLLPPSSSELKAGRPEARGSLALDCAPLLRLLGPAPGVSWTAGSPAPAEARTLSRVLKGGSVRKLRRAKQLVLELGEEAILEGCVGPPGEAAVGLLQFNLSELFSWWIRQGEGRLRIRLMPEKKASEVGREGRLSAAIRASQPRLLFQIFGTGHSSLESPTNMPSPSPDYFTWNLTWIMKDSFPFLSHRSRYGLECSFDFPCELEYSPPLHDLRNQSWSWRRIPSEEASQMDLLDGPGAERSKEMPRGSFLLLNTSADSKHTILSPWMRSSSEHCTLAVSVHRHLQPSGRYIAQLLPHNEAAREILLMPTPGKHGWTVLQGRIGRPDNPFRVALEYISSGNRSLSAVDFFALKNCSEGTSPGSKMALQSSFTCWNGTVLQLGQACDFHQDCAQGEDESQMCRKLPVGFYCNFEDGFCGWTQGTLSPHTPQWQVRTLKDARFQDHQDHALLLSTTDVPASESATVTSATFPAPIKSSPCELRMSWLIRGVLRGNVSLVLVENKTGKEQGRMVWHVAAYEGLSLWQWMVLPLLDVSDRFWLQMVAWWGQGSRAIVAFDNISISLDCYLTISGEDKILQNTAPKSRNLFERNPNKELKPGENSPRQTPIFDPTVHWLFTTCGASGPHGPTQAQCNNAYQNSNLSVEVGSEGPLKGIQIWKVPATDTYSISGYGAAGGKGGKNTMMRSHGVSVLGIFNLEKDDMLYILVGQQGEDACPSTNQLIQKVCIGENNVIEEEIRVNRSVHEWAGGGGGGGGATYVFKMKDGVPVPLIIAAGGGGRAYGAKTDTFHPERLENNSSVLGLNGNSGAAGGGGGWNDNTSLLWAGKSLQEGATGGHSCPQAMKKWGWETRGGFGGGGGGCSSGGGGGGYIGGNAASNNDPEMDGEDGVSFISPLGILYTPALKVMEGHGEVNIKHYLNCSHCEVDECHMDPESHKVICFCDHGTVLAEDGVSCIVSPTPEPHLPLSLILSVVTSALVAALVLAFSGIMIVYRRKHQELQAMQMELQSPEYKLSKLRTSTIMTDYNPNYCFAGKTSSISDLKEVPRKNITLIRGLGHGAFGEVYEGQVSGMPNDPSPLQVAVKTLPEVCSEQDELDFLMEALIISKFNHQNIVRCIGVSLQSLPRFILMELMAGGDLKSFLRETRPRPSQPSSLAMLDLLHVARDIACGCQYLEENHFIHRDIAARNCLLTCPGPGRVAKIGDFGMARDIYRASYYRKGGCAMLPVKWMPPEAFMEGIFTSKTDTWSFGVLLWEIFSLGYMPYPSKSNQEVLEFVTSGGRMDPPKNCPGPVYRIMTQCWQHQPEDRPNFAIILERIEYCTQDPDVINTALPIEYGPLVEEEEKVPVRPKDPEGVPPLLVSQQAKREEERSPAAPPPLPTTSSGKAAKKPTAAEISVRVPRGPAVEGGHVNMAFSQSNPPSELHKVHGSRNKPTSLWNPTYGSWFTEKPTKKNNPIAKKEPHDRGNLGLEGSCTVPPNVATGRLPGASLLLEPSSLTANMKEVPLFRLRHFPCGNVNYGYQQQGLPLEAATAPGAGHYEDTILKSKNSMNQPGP
Description: The IC50 values of the compounds were calculated using XLFIT5 (IDBS) software.

IC50 (Ba/F3 LMNA-NTRK3-G623R; test batch marked #): 8.34 nM | IC50 (Ba/F3 LMNA-NTRK3-G623R; test batch marked *): 8.4 nM | IC50 (Ba/F3 ETV6-NTRK3-WT; test batch marked #): 1.04 nM | IC50 (Ba/F3 ETV6-NTRK3-WT; test batch marked *): 0.2 nM | AUC(0-inf) ([1]; male, SD, plasma, IV, 1 mg/kg): 621 ng·h/mL | C0 ([1]; male, SD, plasma, IV, 1 mg/kg): 217 ng/mL | half-life ([1]; male, SD, plasma, IV, 1 mg/kg): 1.7 h | clearance ([1]; male, SD, plasma, IV, 1 mg/kg, read-out: C1 (clearance)): 27.2 mL/min/kg | Vd ([1]; male, SD, plasma, IV, 1 mg/kg, read-out: Vdss): 4.26 L/kg | AUC(0-inf) ([1]; male, SD, plasma, PO, 5 mg/kg): 3550 ng·h/mL | Cmax ([1]; male, SD, plasma, PO, 5 mg/kg): 952 ng/mL | Tmax ([1]; male, SD, plasma, PO, 5 mg/kg): 0.667 h | half-life ([1]; male, SD, plasma, PO, 5 mg/kg): 1.84 h | bioavailability ([1]; male, SD, plasma, po, 5 mg/kg, PO, 5 mg/kg, read-out: F (oral bioavailability)): 100% | F (oral bioavailability) ([1]; PO, 5 mg/kg): 114% | Kp ([2]; brain/plasma, AUC0-inf ratio): 1.14 | AUC(0-inf) ([2]; brain, read-out: AUC0-inf Brain): 20.8 µM·h | AUC(0-inf) ([2]; plasma, read-out: AUC0-inf Plasma): 18.2 µM·h | IC50 (ALK-L1196M): 50 nM
SMILES: C[C@H]1COC(=O)c2cnn3ccc(nc23)N[C@H](C)c2cc(F)ccc2O1 [Example 1, (1^3E,1^4E,3R,6S)-4^5-fluoro-3,6-dimethyl-5,8-dioxa-2-aza-1(5,3)-pyrazolo[1,5-a]pyrimidina-4(1,2)-benzenacyclononaphan-9-one]
PK performance compared with TPX-0005 ([1]; oral): better oral pharmacokinetic performance than that of TPX-0005

Reference: patent US12129258B2, “Diaryl macrocyclic compound and pharmaceutical composition, and use thereof” (PrimeGene (Beijing) Co., Ltd., priority 2018, dated 2024)
